{"source": "patent US20240197896A1", "about": "“SYNTHETIC PEPTIDE SHUTTLE AGENT BIOCONJUGATES FOR INTRACELLULAR CARGO DELIVERY” (FELDAN BIO INC., priority 2021, published 2024)", "key": {"[1]": {"test_system": "HeLa cells", "assay": "In vitro transduction of GFP-NLS cargo in HeLa cells (flow cytometry and fluorescence microscopy)", "type": "cell-based", "conditions": "used at 10 μM; 10% human serum", "protocol": "(§1) HeLa cells were plated (20 000 cells/well) in a 96 well-dish one day prior to transduction. Each delivery mix comprising a PEGylated shuttle agent (monomer or multimer) or a non-PEGylated shuttle agent at the indicated concentration(s) and 10 μM of a fluorescent cargo (e.g., GFP-NLS or DRI-NLS^647) was prepared in 50 μL with RPMI 1640 media completed with 10% human serum. Cells were washed once with PBS 1×, then incubated for 5 minutes with the prepared shuttle/cargo mix, PEGylated shuttle agent/cargo mix, and/or with the cargo alone as a negative control. After the incubation, 100 μL of DMEM containing 10% FBS was added to the mix and removed. […] Cells were then analyzed after a 1-hour incubation by fluorescence microscopy (Revolve, Echo: San Diego, CA, USA) and flow cytometry (Cytoflex™, Beckman Coulter: Indianapolis, IN, USA).\n(§2) The signal intensity emitted by the fluorescent cargo and the percentage of cargo delivered cells was quantified by flow cytometry. Untreated cells were used to establish a baseline to quantify the increase in fluorescence that results from a successful internalization of the cargo in the presence of the shuttle agent in the treated cells. The percentage of cells with a fluorescence signal greater than the maximum fluorescence of untreated cells, “mean %” or “Pos cells (%)”, was used to identify positive fluorescent cells for determining transduction efficiency. […]"}, "[2]": {"test_system": "HeLa cells", "assay": "In vitro transduction of DRI-NLS^647 cargo in HeLa cells (flow cytometry and fluorescence microscopy)", "type": "cell-based, Human", "conditions": "used at 10 μM; cargo 10 μM", "protocol": "as §1, §2"}, "[3]": {"test_system": "cells", "conditions": "following the cells being exposed to the shuttle agent and cargo; cited from earlier work"}, "[4]": {"assay": "Cell viability / cytotoxicity in HeLa transduction assays (flow cytometry FSC/SSC)", "type": "cell-based", "conditions": "human, HeLa cells", "protocol": "HeLa cells were plated (20 000 cells/well) in a 96 well-dish one day prior to transduction. Each delivery mix comprising a PEGylated shuttle agent (monomer or multimer) or a non-PEGylated shuttle agent at the indicated concentration(s) and 10 μM of a fluorescent cargo (e.g., GFP-NLS or DRI-NLS^647) was prepared in 50 μL with RPMI 1640 media completed with 10% human serum. Cells were washed once with PBS 1×, then incubated for 5 minutes with the prepared shuttle/cargo mix, PEGylated shuttle agent/cargo mix, and/or with the cargo alone as a negative control. After the incubation, 100 μL of DMEM containing 10% FBS was added to the mix and removed. Cells were washed once with PBS 1× and incubated in DMEM containing 10% FBS. Cells were then analyzed after a 1-hour incubation by fluorescence microscopy (Revolve, Echo: San Diego, CA, USA) and flow cytometry (Cytoflex™, Beckman Coulter: Indianapolis, IN, USA).\nThe signal intensity emitted by the fluorescent cargo and the percentage of cargo delivered cells was quantified by flow cytometry. Untreated cells were used to establish a baseline to quantify the increase in fluorescence that results from a successful internalization of the cargo in the presence of the shuttle agent in the treated cells. The percentage of cells with a fluorescence signal greater than the maximum fluorescence of untreated cells, “mean %” or “Pos cells (%)”, was used to identify positive fluorescent cells for determining transduction efficiency. The mean fluorescence intensity (Mean-FITC/APC) is the average of all fluorescence intensities of each cell with a fluorescent signal after delivery of fluorescent cargos. “Delivery scores” were calculated to provide a further indication of the total amount of cargo that was delivered per cell amongst all cargo-positive cells and was calculated by multiplying the mean fluorescence intensity (of at least duplicate samples) measured for the viable cargo-positive cells, by the mean percentage of viable cargo-positive cells, divided by 100,000. Finally, a “Delivery-Viability Score” was sometimes calculated for each peptide as the Mean viability multiplied by the Delivery Score multiplied by 10, enabling a ranking of the shuttle agents in terms of both their transduction activity and toxicity. Furthermore, the events detected by the cytometer and which correspond to the cells (size and granularity) were analyzed. Cellular toxicity (% cell viability) is obtained by comparing the size (FSC) and granularity (SSC) of each cell delivery condition to untreated cells. The delivery conditions of the cells also included the “cargo only” as a control."}, "[5]": {"assay": "in vitro", "conditions": "human, cerebrospinal or other body fluid", "from_the_text": "To evaluate the effect of sputum from CF patients on the shuttle agent conjugates, degradation of FSD10 or FSD10-mal-PEG20K was first assessed to determine whether addition of a PEG on the shuttle was protective from the sputum."}}, "note": "Where two headings read alike, the source gives them in different places. Ends that are not written are not given here."}
{"compound": "FSD10scr: negative control peptide, same amino acids of FSD10 rearranged in a scrambled order (KWKLARAFARAIKKLGGSGGGSYARALRRQARTG; FSD10 Scarmble)", "values": [{"measurement": "nuclear cargo transduction of GFP-NLS by microscopy", "setting": "[1]", "result": "no significant transduction"}, {"measurement": "nuclear cargo transduction of independent DRI-NLS^647 by microscopy", "setting": "[2]", "result": "no significant transduction"}]}
{"compound": "His-CM18-PTD4: first generation shuttle agent (HHHHHHKWKLFKKIGAVLKVLTTGYARAAARQARA; His-CM18-PTD4)", "values": [{"measurement": "time to deliver GFP-NLS cargo to the cytosol", "setting": "[3]", "result": 45, "unit": "s"}]}
{"compound": "N=C(N)NCCC[C@H](NC(=O)[C@H](CCCNC(=N)N)NC(=O)[C@H](CCCNC(=N)N)NC(=O)[C@H](CCC(N)=O)NC(=O)[C@H](CCCNC(=N)N)NC(=O)[C@H](CCCNC(=N)N)NC(=O)[C@H](CCCCN)NC(=O)[C@H](CCCCN)NC(=O)[C@H](CCCNC(=N)N)NC(=O)CNC(=O)[C@@H](N)Cc1ccc(O)cc1)C(=O)O", "note": "[TAT]", "values": [{"measurement": "viability at 5 min", "setting": "[4]; concentrations of 10 to 220 μM (data not shown), read-out: viabilities", "result": "> 80", "unit": "%"}]}
{"compound": "KWKLARAFARAIKKLGGSGGGSYARALRRQARTG [FSD10]", "values": [{"measurement": "viability at 5 min, 20 µM", "setting": "[4]; shuttle agent at 20 μM, 10 μM GFP-NLS", "result": 55, "unit": "%"}, {"measurement": "viability at 5 min, 40 µM", "setting": "[4]; shuttle agent at 40 μM, 10 μM GFP-NLS", "result": 6, "unit": "%"}, {"measurement": "viability at 5 min", "setting": "[4]; shuttle agent, 10 μM GFP-NLS, read-out: cell viabilities", "result": "< 10", "unit": "%"}, {"measurement": "metabolised at 5 min", "setting": "[5]", "result": 40, "unit": "%"}]}
